The record followed here is ChEMBL document CHEMBL3621147, “An azumamide C analogue without the zinc-binding functionality” (Medchemcomm, 2014).

Calls of active or inactive are those of the source. The calls are words filed in the database; no cut-off is given here.

Experiment [1] addresses Histone deacetylase 1 (Homo sapiens, UniProt Q13547). The experiment can be described thus: Inhibition of human recombinant HDAC1 using Ac-Leu-Gly-Lys (Ac)-AMC substrate incubated for 30 mins by fluorescence assay.
Experiment [2] addresses Histone deacetylase 2 (Homo sapiens, UniProt Q92769). The experiment can be described thus: Inhibition of human recombinant HDAC2 using Ac-Leu-Gly-Lys (Ac)-AMC substrate incubated for 30 mins by fluorescence assay.
For experiment [3], the target named is T1, Histone deacetylase 3/Nuclear receptor corepressor 2 (HDAC3/NCoR2) (Homo sapiens, UniProt O15379). Put plainly: Inhibition of human recombinant HDAC3/NCoR2 using Ac-Leu-Gly-Lys (Ac)-AMC substrate incubated for 30 mins by fluorescence assay. It counts as protein-complex assay.
In experiment [4] the target is T2, Polyamine deacetylase HDAC10 (Homo sapiens, UniProt Q969S8).
T2 sequence (Q969S8 whole entry): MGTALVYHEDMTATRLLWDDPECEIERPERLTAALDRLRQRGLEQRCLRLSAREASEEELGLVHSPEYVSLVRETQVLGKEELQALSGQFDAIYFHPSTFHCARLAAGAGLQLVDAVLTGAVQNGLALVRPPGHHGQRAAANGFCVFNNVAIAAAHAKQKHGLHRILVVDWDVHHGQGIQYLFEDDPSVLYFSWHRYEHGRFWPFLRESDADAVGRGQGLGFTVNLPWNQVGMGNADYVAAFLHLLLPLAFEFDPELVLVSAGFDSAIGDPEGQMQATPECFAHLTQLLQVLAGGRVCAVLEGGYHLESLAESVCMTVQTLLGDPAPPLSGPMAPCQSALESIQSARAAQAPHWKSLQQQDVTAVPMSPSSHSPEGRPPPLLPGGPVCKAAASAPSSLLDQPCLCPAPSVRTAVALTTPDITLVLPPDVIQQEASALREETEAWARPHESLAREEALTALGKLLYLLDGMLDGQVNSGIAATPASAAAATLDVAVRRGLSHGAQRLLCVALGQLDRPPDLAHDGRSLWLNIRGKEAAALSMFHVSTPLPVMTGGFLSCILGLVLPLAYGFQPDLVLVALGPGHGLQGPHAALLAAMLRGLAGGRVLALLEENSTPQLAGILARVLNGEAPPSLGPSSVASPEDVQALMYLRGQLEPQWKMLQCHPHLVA
Put plainly: Inhibition of human recombinant HDAC10 using Ac-Arg-His-Lys (Ac)-Lys (Ac)-AMC substrate incubated for 30 mins by fluorescence assay.

Experiment [5] deals with T3, Histone deacetylase 11 (Homo sapiens, UniProt Q96DB2).
T3 sequence (Q96DB2 whole entry): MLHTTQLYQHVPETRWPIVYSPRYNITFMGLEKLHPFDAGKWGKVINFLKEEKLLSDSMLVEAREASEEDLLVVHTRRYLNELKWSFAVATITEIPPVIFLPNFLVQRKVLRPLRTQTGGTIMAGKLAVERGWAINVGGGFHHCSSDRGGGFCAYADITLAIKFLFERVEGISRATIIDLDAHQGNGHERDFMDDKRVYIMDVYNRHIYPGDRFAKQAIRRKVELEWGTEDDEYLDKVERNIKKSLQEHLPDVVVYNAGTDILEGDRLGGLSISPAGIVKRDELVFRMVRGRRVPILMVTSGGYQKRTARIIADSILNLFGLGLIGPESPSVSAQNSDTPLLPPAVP
Put plainly: Inhibition of human recombinant HDAC11 using Ac-Leu-Gly-Lys (Ac)-AMC substrate incubated for 30 mins by fluorescence assay.

Experiment [6] concerns the target T1, Histone deacetylase 3/Nuclear receptor corepressor 2 (HDAC3/NCoR2). The experiment can be described thus: Inhibition of human recombinant HDAC3/NCoR2 using Ac-Leu-Gly-Lys (Ac)-AMC substrate incubated for 45 mins by fluorescence assay based continuous assay protocol. The experiment is classed as protein-complex assay.
A short description of experiment [7]: Antiproliferative activity against human EB3 cells assessed as growth inhibition incubated for 3 days by MTT assay. It counts as functional. As to conditions: EB-3, 72 h. In general terms: Tetrazolium assays rely on reduction of a dye to a coloured formazan, in cell work by metabolically active cells.
Experiment [8] relates to EB-3. As to conditions: Homo sapiens, at 10 µM.
Description: Antiproliferative activity against human EB3 cells at 10 uM incubated for 3 days by MTT assay
In experiment [9] the target is T4, Histone deacetylase 8 (Homo sapiens) (UniProt Q9BY41).
T4 sequence (whole entry): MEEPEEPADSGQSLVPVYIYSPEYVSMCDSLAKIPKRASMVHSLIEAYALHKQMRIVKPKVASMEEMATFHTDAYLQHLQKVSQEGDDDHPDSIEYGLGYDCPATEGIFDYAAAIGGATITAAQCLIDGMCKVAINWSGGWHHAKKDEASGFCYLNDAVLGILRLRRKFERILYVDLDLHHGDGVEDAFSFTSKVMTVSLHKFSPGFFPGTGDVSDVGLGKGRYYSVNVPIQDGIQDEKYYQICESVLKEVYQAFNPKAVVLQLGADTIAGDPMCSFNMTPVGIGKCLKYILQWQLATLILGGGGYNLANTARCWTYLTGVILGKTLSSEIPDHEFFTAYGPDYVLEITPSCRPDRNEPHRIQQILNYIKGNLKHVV
The experiment can be described thus: Inhibition of human recombinant HDAC8 using Ac-Leu-Gly-Lys (Tfa)-AMC substrate incubated for 30 mins by fluorescence assay.

Experiment [10] addresses Histone deacetylase 4 (Homo sapiens) (UniProt P56524). The experiment can be described thus: Inhibition of human recombinant HDAC4 using Ac-Leu-Gly-Lys (Tfa)-AMC substrate incubated for 30 mins by fluorescence assay.
For experiment [11], the target named is Histone deacetylase 5 (Homo sapiens) (UniProt Q9UQL6). Put plainly: Inhibition of human recombinant HDAC5 using Ac-Leu-Gly-Lys (Tfa)-AMC substrate incubated for 30 mins by fluorescence assay.
The target of experiment [12] is T5, Histone deacetylase 7 (Homo sapiens) (UniProt Q8WUI4).
T5 sequence (whole entry): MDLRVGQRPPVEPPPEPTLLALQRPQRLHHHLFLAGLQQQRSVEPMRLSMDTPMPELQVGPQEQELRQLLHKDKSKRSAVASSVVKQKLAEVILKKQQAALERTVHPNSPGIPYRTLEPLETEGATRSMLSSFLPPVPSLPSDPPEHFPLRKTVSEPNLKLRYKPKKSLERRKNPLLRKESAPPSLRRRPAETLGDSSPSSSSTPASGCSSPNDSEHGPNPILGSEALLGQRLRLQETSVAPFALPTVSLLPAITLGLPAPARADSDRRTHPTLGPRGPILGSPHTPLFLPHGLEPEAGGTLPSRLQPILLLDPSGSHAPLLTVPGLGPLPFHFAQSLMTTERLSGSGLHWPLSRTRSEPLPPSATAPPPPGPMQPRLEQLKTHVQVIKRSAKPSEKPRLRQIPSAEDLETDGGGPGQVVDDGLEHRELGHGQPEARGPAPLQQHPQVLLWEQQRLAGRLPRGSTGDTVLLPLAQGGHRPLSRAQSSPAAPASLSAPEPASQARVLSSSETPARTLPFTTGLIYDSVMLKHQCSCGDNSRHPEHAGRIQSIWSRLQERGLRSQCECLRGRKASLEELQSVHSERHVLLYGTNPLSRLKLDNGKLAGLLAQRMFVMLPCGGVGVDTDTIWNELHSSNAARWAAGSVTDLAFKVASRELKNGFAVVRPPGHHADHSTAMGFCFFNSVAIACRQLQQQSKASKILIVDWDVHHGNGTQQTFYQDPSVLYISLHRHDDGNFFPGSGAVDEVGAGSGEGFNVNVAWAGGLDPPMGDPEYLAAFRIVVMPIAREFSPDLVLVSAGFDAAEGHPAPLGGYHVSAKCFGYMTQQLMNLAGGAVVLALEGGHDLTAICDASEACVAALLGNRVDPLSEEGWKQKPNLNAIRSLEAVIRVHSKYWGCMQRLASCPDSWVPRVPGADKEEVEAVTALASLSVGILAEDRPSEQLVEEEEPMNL
Put plainly: Inhibition of human recombinant HDAC7 using Ac-Leu-Gly-Lys (Tfa)-AMC substrate incubated for 30 mins by fluorescence assay.

Experiment [13] has as its target Histone deacetylase 9 (Homo sapiens) (UniProt Q9UKV0). Put plainly: Inhibition of human recombinant HDAC9 using Ac-Leu-Gly-Lys (Tfa)-AMC substrate incubated for 30 mins by fluorescence assay.
Experiment [14] concerns the target T6, Protein deacetylase HDAC6 (Homo sapiens) (UniProt Q9UBN7).
T6 sequence (whole entry): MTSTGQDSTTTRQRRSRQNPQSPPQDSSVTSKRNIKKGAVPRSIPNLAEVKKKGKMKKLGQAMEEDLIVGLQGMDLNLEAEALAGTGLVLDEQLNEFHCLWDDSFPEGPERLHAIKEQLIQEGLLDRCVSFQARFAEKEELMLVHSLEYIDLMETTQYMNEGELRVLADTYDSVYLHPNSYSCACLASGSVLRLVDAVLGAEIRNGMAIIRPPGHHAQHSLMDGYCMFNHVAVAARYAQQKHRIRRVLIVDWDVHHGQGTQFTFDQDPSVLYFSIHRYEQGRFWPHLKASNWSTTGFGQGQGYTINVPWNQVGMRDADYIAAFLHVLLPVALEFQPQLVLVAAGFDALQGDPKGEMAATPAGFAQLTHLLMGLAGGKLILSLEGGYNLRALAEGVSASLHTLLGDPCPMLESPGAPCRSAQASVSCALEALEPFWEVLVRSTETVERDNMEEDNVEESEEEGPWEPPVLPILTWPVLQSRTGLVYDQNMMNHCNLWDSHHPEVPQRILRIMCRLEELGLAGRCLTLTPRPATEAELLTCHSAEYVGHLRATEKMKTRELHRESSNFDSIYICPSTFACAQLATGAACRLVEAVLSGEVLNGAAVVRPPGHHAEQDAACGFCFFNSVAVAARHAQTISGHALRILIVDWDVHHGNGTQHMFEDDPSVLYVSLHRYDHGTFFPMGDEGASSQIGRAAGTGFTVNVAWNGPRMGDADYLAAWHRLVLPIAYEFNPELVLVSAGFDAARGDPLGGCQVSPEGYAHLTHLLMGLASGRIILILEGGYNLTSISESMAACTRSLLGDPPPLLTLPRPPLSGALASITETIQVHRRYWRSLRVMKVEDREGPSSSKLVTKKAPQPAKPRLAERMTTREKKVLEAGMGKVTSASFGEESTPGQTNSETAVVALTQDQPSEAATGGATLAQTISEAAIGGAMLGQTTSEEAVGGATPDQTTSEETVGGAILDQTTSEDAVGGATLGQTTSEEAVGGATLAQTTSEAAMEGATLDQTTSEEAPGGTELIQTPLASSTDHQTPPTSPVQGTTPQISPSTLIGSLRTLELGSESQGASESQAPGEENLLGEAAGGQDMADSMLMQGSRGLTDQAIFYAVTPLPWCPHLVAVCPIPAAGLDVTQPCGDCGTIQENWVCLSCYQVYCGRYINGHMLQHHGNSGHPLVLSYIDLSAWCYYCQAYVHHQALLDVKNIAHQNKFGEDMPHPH
The experiment can be described thus: Inhibition of human recombinant HDAC6 using Ac-Leu-Gly-Lys (Ac)-AMC substrate incubated for 30 mins by fluorescence assay.

T1 sequence (O15379 whole entry): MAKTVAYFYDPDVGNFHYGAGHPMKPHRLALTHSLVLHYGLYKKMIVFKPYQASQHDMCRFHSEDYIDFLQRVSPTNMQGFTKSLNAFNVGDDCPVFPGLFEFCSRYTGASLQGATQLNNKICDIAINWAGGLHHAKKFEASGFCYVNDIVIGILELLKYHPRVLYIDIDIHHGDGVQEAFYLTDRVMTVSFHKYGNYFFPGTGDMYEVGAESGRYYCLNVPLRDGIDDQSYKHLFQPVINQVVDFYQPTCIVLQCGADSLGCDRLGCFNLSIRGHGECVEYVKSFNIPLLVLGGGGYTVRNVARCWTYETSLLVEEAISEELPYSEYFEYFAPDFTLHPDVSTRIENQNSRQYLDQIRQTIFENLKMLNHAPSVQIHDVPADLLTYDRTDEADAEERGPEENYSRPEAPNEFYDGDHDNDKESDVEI
T1 sequence (Q9Y618 whole entry, further chain): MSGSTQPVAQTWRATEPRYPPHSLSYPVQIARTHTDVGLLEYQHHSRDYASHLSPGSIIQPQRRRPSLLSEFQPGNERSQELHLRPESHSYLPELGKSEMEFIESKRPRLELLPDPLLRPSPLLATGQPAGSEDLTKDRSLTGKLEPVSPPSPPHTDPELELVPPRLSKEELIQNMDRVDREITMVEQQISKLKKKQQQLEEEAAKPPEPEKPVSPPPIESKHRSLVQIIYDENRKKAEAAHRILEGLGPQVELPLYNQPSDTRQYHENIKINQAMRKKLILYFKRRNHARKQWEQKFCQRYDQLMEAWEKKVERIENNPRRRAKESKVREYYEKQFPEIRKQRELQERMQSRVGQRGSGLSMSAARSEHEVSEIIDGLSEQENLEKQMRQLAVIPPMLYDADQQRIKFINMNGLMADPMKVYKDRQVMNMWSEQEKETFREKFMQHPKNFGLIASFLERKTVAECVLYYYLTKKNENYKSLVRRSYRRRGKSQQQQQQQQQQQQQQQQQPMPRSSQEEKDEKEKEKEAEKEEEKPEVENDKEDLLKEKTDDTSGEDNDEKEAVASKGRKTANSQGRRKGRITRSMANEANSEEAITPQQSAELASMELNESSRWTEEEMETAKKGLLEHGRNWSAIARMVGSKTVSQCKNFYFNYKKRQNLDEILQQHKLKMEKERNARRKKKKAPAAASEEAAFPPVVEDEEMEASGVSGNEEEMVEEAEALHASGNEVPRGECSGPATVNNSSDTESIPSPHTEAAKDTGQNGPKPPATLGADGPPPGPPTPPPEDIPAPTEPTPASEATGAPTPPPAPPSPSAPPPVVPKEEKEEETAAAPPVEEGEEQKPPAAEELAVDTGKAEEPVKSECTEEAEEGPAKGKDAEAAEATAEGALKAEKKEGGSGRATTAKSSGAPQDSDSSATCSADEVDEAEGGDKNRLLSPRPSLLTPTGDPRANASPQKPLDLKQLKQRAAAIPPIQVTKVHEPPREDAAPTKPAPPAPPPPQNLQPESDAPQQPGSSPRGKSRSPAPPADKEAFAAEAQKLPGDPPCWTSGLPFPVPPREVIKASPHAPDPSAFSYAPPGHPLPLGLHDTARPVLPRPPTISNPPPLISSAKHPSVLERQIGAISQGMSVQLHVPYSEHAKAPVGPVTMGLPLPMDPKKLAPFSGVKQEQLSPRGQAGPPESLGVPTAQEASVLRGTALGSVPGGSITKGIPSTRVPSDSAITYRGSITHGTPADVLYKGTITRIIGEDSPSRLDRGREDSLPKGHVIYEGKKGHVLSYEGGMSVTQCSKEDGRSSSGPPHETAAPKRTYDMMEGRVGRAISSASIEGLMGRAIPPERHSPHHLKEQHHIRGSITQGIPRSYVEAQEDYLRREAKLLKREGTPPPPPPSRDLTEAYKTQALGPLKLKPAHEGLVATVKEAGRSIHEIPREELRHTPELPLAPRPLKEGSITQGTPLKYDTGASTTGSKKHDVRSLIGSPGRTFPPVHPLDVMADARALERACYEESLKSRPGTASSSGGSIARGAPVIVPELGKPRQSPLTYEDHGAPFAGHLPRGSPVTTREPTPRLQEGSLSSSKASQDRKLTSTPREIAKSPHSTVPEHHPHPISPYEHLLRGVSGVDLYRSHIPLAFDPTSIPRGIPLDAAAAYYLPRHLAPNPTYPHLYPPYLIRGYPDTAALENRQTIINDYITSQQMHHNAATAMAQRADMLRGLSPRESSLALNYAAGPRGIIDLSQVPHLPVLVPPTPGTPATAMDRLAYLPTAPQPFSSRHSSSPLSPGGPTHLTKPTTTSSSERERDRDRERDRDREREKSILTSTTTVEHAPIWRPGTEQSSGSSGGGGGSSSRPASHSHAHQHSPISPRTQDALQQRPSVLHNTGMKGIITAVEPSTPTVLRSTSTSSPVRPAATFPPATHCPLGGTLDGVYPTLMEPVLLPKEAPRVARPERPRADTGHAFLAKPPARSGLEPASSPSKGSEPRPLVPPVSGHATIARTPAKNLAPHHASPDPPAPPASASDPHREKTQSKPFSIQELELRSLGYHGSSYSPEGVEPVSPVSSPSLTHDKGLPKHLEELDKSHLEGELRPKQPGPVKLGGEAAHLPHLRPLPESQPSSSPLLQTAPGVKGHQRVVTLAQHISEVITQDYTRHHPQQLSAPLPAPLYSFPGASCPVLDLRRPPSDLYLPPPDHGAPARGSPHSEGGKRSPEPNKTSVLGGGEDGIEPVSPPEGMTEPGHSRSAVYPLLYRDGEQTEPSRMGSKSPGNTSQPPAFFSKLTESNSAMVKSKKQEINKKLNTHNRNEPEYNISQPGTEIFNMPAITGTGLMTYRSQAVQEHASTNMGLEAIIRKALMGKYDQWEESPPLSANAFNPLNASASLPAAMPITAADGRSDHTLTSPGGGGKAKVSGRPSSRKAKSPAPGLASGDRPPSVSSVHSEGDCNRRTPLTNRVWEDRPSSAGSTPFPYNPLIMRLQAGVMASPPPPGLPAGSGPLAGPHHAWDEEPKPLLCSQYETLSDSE
Chain of Histone deacetylase 2 (Q92769 whole entry): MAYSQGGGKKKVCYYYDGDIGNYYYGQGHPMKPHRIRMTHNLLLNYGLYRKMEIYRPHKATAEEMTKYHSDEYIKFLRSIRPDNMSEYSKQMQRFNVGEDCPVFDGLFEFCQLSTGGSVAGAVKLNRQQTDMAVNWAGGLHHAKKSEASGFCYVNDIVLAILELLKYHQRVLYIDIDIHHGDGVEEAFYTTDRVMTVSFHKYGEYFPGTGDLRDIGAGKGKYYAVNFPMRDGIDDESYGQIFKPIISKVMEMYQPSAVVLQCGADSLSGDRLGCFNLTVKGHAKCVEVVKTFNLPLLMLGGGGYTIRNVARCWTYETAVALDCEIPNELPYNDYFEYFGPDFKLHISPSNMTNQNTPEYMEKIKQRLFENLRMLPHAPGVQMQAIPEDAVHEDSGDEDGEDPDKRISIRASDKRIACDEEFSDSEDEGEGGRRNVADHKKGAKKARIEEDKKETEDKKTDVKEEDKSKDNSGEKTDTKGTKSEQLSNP
Chain of Histone deacetylase 1 (Q13547 whole entry): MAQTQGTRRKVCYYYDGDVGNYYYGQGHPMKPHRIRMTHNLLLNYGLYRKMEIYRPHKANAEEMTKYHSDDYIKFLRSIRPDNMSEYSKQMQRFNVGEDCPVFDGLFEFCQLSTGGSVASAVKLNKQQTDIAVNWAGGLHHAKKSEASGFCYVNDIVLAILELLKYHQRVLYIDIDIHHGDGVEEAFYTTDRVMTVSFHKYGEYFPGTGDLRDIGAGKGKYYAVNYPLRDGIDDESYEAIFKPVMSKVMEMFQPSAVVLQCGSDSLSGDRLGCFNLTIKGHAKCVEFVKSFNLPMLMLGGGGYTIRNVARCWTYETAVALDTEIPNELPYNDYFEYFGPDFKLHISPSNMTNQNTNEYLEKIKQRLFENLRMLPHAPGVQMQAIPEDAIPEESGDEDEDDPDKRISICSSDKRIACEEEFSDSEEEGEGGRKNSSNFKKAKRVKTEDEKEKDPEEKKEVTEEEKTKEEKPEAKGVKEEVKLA
Chain of Histone deacetylase 9 (Homo sapiens) (Q9UKV0 whole entry): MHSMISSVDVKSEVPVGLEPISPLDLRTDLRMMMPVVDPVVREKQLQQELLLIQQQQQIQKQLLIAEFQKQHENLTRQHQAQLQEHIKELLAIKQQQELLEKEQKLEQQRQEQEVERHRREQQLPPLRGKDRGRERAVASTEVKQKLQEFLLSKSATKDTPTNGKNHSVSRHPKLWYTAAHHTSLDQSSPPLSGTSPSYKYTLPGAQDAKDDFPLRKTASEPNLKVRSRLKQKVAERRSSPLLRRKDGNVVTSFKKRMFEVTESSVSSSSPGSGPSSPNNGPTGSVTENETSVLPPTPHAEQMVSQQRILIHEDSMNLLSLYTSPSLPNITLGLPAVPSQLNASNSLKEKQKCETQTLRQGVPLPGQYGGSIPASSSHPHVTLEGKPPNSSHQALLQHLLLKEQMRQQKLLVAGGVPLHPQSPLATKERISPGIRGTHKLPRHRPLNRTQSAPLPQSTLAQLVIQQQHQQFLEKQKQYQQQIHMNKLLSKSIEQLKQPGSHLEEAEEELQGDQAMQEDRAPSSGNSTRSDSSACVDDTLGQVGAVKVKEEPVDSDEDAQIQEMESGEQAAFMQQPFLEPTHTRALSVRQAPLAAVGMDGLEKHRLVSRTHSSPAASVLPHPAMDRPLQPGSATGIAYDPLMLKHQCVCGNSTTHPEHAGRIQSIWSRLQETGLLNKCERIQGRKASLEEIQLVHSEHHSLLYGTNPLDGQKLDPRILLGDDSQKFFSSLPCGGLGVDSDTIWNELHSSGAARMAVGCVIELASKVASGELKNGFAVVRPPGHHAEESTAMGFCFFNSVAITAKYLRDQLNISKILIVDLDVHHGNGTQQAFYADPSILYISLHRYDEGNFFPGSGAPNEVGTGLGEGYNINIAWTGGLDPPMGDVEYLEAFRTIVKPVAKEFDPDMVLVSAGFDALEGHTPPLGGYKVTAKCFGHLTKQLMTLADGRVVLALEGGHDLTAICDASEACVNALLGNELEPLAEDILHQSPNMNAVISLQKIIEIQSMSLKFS

A word on the Ki: it is a dissociation constant, usually derived from enzyme kinetics or from competition with a known ligand. As usually defined, the GI50 is the concentration giving 50% growth inhibition. For `CC(C)[C@H]1NC(=O)[C@@H](C)[C@@H](C/C=C\CCC(=O)O)NC(=O)[C@@H](Cc2ccc(O)cc2)NC(=O)[C@@H](C)NC1=O` [AZUMAMIDE C], the Ki in experiment [1] was found to be 20 nM; in experiment [2], 10 nM; in experiment [3], 18 nM; in [4], 20 nM; in experiment [5], 60 nM; in experiment [6] it was 9.67 nM. The 50% growth inhibitory concentration (GI50) in experiment [7] was more than 25000 nM. Moreover, the inhibition entry in experiment [8] is “inactive”.

For `CCC(=O)CCCCC[C@@H]1NC(=O)[C@H]2CCCCN2C(=O)[C@H]([C@@H](C)CC)NC(=O)[C@H](Cc2cn(OC)c3ccccc23)NC1=O` [APICIDIN], the GI50 in experiment [7] came out at 800 nM. Also, the inhibition entry in experiment [8] is “Active”.

With `CCC[C@H]1NC(=O)[C@@H](Cc2ccc(O)cc2)NC(=O)[C@@H](C)NC(=O)[C@@H](C(C)C)NC(=O)[C@H]1C`, the Ki was found to be 2400 nM in experiment [1]; 1400 nM in experiment [2]; 3000 nM in experiment [3]; 4000 nM in experiment [4]; 6000 nM in experiment [5]; 780 nM in experiment [6]. The inhibition entry in [9], in [10], in [11], in experiment [12], in experiment [13] and in [14] was “inactive” throughout. Besides, the inhibition entry in experiment [8] was “inactive”. In experiment [7], the GI50 was more than 50000 nM.

As to `CC(C)[C@H]1NC(=O)[C@@H](C)[C@@H](C/C=C\CCC(N)=O)NC(=O)[C@@H](Cc2ccc(O)cc2)NC(=O)[C@@H](C)NC1=O` [AZUMAMIDE B], in experiment [7], the GI50 is more than 50000 nM. Further, the inhibition entry in experiment [8] is “inactive”.
